One experiment has as its target MAPKAPK3 (Homo sapiens, UniProt Q16644). As to the kind of experiment: TPP-CCR in living HL-60 cells. Conditions: […] °C, TMT-MS.
The next experiment deals with MAPKAPK2. Further details: method as in PMID 23398362. The following applies: cited from earlier work.

MAPKAPK3, sequence (Q16644 whole entry): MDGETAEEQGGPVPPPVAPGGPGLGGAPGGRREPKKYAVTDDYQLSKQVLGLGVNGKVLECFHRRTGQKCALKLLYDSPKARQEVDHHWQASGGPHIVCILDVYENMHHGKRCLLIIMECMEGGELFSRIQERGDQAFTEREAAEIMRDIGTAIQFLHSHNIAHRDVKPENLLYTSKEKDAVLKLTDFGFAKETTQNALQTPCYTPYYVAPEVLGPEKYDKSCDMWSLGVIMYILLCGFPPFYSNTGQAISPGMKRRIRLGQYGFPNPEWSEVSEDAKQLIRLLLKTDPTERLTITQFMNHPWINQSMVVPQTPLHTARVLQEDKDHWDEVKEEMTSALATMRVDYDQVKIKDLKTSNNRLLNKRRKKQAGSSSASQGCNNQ
MAPKAPK3, sequence (Q16539 2-360 partner limits assumed): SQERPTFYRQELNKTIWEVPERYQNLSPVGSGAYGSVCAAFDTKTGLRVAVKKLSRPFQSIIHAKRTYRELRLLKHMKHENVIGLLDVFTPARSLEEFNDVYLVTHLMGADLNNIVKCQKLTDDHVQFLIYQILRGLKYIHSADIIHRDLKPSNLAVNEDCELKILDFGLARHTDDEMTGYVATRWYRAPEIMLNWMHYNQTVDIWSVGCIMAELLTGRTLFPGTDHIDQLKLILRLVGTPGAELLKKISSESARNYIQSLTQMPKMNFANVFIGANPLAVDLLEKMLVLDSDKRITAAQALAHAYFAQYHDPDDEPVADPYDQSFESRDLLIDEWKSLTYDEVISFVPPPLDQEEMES

Consider `Cn1c(NC[C@@H](N)Cc2ccccc2)nc(-c2ccncc2)c(-c2ccc3ccccc3c2)c1=O` [AMG-548], for which, on MAPKAPK3, the “Hill slope (MAPKAPK3)” value is recorded as 0.68. As to `C[S+]([O-])c1ccc(-c2nc(-c3ccncc3)c(-c3ccc(F)cc3)[nH]2)cc1` (centres unmarked) [SB203580], the “activity against MAPKAPK2” value with MAPKAPK2 was “inactivity”.

The values above are taken from paper PMC9147192, “Small Molecule Arranged Thermal Proximity Coaggregation (smarTPCA)—A Novel Approach to Characterize Protein–Protein Interactions in Living Cells by Similar Isothermal Dose–Responses” (International Journal of Molecular Sciences, 2022).
